Laboratory results taken from US10189773B2, “In-vivo gelling pharmaceutical pre-formulation” (MEDICUS BIOSCIENCES, LLC, priority 2010, dated 2019).

Experiment: Saturated solution of DDP or DCP in phosphate and borate buffers
Assay type: physicochemical
Conditions: 25° C.
From the text: Samples containing DDP or DCP were protected from light as a precaution.

Row | Structure (SMILES) | final concentration of saturated solution (borate buffer (pH of 7.94)) [mg/mL] | final concentration of saturated solution (phosphate buffer) [mg/mL]
1 | N.N.O=C([O-])C1(C(=O)[O-])CCC1.[Pt+2] [DCP, cis-Diammine(1,1-cyclobutanedicarboxylato)platinum(II)] | 15.6 | 14.7
2 | N.N.[Cl][Pt][Cl] [DDP, cisdiamminedichloroplatinum(II)] | 1.3 | 1.3
